IC50 and melting point data for 26 molecules are collected here from patent US6423740B1, “Chalcones having antiproliferative activity” (Indena S.p.A., priority 1997, dated 2002).

The test system of data set [1] is MDA-MB231. Nature of the data set: Antiproliferation activity in vitro, cell count after 72 hours, sensitive breast tumoral line. It is filed as cell-based. Particulars: MDA-MB-231, MDA-MB231 sensitive human breast tumoral line, read-out: IC50 (MDA-MB231), concentration causing 50% inhibition of the cell proliferation. How it is done:
(§1) The various compounds under test, dissolved in ethyl alcohol, were added at serial dilutions and the treated cells and control cells were incubated with ^3H-estradiol or in the presence of diethylstilbestrol according to the methods described by literature. The antiproliferation activity were verified in the same way by adding the compounds, dissolved in DMSO, to the medium and performing a cell count after 72 hours.

The test system of data set [2] is MCF7 ADRr. Put plainly: Antiproliferation activity in vitro, cell count after 72 hours, adriamycin-resistant breast tumoral line. It is filed as cell-based. Particulars: MCF7 ADRr adriamycin-resistant human breast tumoral line, read-out: IC50 (MCF7 ADRr), concentration causing 50% inhibition of the cell proliferation. The procedure: as §1
Data set [3] has as its system type II estrogen receptors. Nature of the data set: Binding to type II estrogen receptors, displacement of 3H-estradiol in tumor cells. Particulars: read-out: IC50, concentration causing 50% displacement of the estradiol labelled by its own receptor. The procedure: The binding to type II estrogen receptors was evaluated in ovarian tumor cells and tumor cells of other target organs. The cells were grown in a single layer according to the known techniques reported in the literature. To make the test reproducibility, the cells were trypsin treated, every week and placed on plates at a density of 8×10^4 cells/cm^2 and incubated at 37° C. in air containing 5% CO2.
as §1

The molecule `CC(C)=CCOc1ccc(C(=O)C=Cc2ccncc2)c(O)c1` [Compound I, 1-[2-Hydroxy-4-(3-methylbut-2-enyloxy)-phenyl]-3(pyridine-4-yl)-propen-1-one] had a melting point of 99 to 100 °C. In addition, the IC50 in data set [1] came out at 3.2 µM. The IC50 in data set [2] stood at 2.8 µM. Further, the IC50 in data set [3] was found to be 1.1 µM.

In turn, `CC(C)=CCOc1ccc(C(=O)C=Cc2cccnc2)c(O)c1` [Compound II, 1-[2-Hydroxy-4-(3-methylbut-2-enyloxy)-phenyl]-3(pyridine-3-yl)-propen-1-one] had a melting point of 177 to 179 °C. In addition, in data set [1], the IC50 came out at 3.2 µM. The IC50 in data set [2] was 2.2 µM. Further, the IC50 in data set [3] was determined as 3.3 µM.

Turning to `CC(=O)Nc1ccc(C=CC(=O)c2ccc(OCC=C(C)C)cc2O)cc1` [Compound III, 1-[2-hydroxy-4-(3-methylbut-2-enyloxy)-phenyl]-3-(4-acetamidophenyl)-propen-1-one], the IC50 in data set [1] came out at 8.2 µM; in data set [2], 7 µM; in data set [3], 4.2 µM.

`C=C(C)COc1ccc(C(=O)C=Cc2ccc(N(C)C)cc2)c(O)c1` [Compound IV, 1-[2-hydroxy-4-(2-methylallyloxy)-phenyl]-3-(4-dimethylaminophenyl)-propen-1-one] had a melting point of 85 to 87 °C. For the same molecule, in data set [1], the IC50 stood at 7.5 µM. In addition, the IC50 in data set [2] turned out to be 9.4 µM. Moreover, the IC50 in data set [3] came out at 1.7 µM.

With `C=C(C)COc1ccc(C(=O)C=Cc2cccc(OC)c2)c(O)c1` [Compound IX, 1-[2-hydroxy-4-(2-methylallyloxy)-phenyl]-3-(3-methoxyphenyl)-propen-1-one], the melting point lay in the range of 97 to 100 °C. The IC50 in data set [1] turned out to be 5 µM. Besides, the IC50 in data set [2] came to 8.9 µM. Further, in data set [3], the IC50 is 3.1 µM.

On to `CC(C)=CCOc1ccc(C(=O)C=Cc2c[nH]c3ccccc23)c(O)c1` [Compound V, 1-[2-hydroxy-4-(3-methylbut-2-enyloxy)-phenyl]-3-(indole-3-yl)-propen-1-one], for which the IC50 in data set [1] was found to be 11 µM; in data set [2] it was 6.8 µM; in data set [3], 2.8 µM.

Consider `C=C(C)COc1ccc(C(=O)C=Cc2c[nH]c3ccccc23)c(O)c1` [Compound VI, 1-[2-Hydroxy-4-(2-methylallyloxy)-phenyl]-3-(indole-3-yl)-propen-1-one], for which the IC50 in data set [1] amounted to 9.6 µM; in data set [2] it was 8.8 µM; in data set [3] it was 3.4 µM.

Regarding `C#CCOc1ccc(C(=O)C=Cc2c[nH]c3ccccc23)c(O)c1` [Compound VII, 1-[2-hydroxy-4-(prop-2-ynyloxy)-phenyl]-3-(indole-3-yl)propen-1-one], the results for the IC50 in data set [1], in data set [2] and in data set [3] were 7.1 µM, 9.4 µM and 5.2 µM, respectively.

In turn, `C=C(C)COc1ccc(C(=O)C=Cc2cccnc2)c(O)c1` [Compound VIII, 1-[2-Hydroxy-4-(2-methylallyloxy)-phenyl]-3-(pyridine-3-yl)-propen-1-one] came in with a melting point of 164 to 166 °C. Moreover, the IC50 in data set [1] was determined as 5.4 µM. Moreover, the IC50 in data set [2] was determined as 6 µM. The IC50 in data set [3] worked out at 4 µM.

`C#CCOc1ccc(C(=O)C=Cc2cccnc2)c(O)c1` [Compound X, 1-[2-hydroxy-4-(prop-2-ynyloxy)-phenyl]-3-(pyridine-3-yl)propen-1-one] yielded a melting point of 115 to 117 °C. Besides, the IC50 in data set [1] is 3.7 µM. The IC50 in data set [2] is 3.7 µM. In addition, the IC50 in data set [3] came to 2.8 µM.

For the molecule `CC(C)=CCOc1ccc(C(=O)C=Cc2cccs2)c(O)c1` [Compound XI, 1-(2-Hydroxy-4-(3-methylbut-2-enyloxy)-phenyl)-3-(2-thienyl)-propen-1-one], the figures for the IC50 in data set [1], in data set [2] and in data set [3] were 4.1 µM, 3.6 µM and 1.4 µM, respectively.

For the molecule `C=C(C)COc1ccc(C(=O)C=Cc2cccs2)c(O)c1` [Compound XII, 1-(2-Hydroxy-4-(2-methylallyloxy)-phenyl)-3-(2-thienyl)-propen-1-one], the IC50 in data set [1] is 5.3 µM; in data set [2] it was 3.9 µM; in data set [3], 2.7 µM.

Turning to `C#CCOc1ccc(C(=O)C=Cc2cccs2)c(O)c1` [Compound XIII, 1-(2-Hydroxy-4-(prop-2-ynyloxy)-phenyl)-3-(2-thienyl)-propen-1-one], the IC50 in data set [1] came to 4.9 µM; in data set [2] it was 5.1 µM; in data set [3], 4.3 µM.

For the molecule `CC(C)=CCOc1ccc(C(=O)C=Cc2ccco2)c(O)c1` [Compound XIV, 1-(2-Hydroxy-4-(3-methylbut-2-enyloxy)-phenyl)-3-(2-furyl)-propen-1-one], the figures for the IC50 in data set [1], in data set [2] and in data set [3] were 5.7 µM, 6.3 µM and 3.2 µM, respectively.

Regarding `CC(C)=CCOc1ccc(C(=O)C=Cc2ccc(F)cc2)c(O)c1` [Compound XIX, 1-(2-Hydroxy-4-(3-methylbut-2-enyloxy)-phenyl)-3-(4-fluorophenyl)-propen-1-one], the melting point lay within 96 to 97 °C.

Regarding `C=C(C)COc1ccc(C(=O)C=Cc2ccccc2)c(O)c1` [Compound XV, 1-(2-Hydroxy-4-(2-methylallyloxy)-phenyl)-3-(phenyl)-propen-1-one], the IC50 in data set [1] is 10.7 µM; in data set [2], 7.1 µM; in data set [3], 2.9 µM.

On to `C#CCOc1ccc(C(=O)C=Cc2ccccc2)c(O)c1` [Compound XVI, 1-(2-Hydroxy-4-(prop-2-ynyloxy)-phenyl)-3-(phenyl)-propen-1-one], for which the IC50 came out at 8.9 µM in data set [1], 8.4 µM in data set [2] and 4.4 µM in data set [3].

`C=C(C)COc1ccc(C(=O)C=Cc2ccc(OC)cc2OC)c(O)c1` [Compound XVII, 1-(2-Hydroxy-4-(2-methylallyloxy)-phenyl)-3-(2,4-dimethoxyphenyl)-propen-1-one] had a melting point of 106 to 107 °C. Further, the IC50 in data set [1] is 4.3 µM. In addition, the IC50 in data set [2] came out at 5.6 µM. In data set [3], the IC50 amounted to 5.5 µM.

Take `C=C(C)COc1ccc(C(=O)C=Cc2ccc(Br)cc2)c(O)c1` [Compound XVIII, 1-(2-Hydroxy-4-(2-methylallyloxy)-phenyl)-3-(4-bromophenyl)-propen-1-one]: the melting point fell in the range of 121 to 122 °C.

In turn, `CC(C)=CCOc1ccc(C(=O)C=Cc2cccc([N+](=O)[O-])c2)c(O)c1` [Compound XX, 1-(2-Hydroxy-4-(3-methylbut-2-enyloxy)-phenyl)-3-(3-nitrophenyl)-propen-1-one] had a melting point of 125 to 126 °C.

The molecule `CC(C)=CCOc1ccc(C(=O)C=Cc2c(Cl)cccc2Cl)c(O)c1` [Compound XXI, 1-(2-Hydroxy-4-(3-methylbut-2-enyloxy)-phenyl)-3-(2,6-dichlorophenyl)-propen-1-one] registered a melting point of 101 to 102 °C.

`CC(C)=CCOc1ccc(C(=O)C=Cc2ccc(C(F)(F)F)cc2)c(O)c1` [Compound XXII, 1-(2-Hydroxy-4-(3-methylbut-2-enyloxy)-phenyl)-3-(4-trifluoromethylphenyl)-propen-1-one] showed a melting point of 122 to 123 °C.

As to `C#CCOc1ccc(C(=O)C=Cc2c(OC)cc(OC)cc2OC)c(O)c1` [Compound XXIII, 1-(2-Hydroxy-4-(prop-2-ynyloxy)-phenyl)-3-(2,4,6-trimethoxyphenyl)-propen-1-one], the melting point was in the range of 177 to 179 °C.

For `C#CCOc1ccc(C(=O)C=Cc2ccc(C#N)cc2)c(O)c1` [Compound XXIV, 1-(2-Hydroxy-4-(prop-2-ynyloxy)-phenyl)-3-(4-cyanophenyl)-propen-1-one], the melting point was in the range of 188 to 190 °C.

`CC(C)=CCOc1ccc(C(=O)C=Cc2ccc(C)cc2)c(O)c1` [Compound XXV, 1-(2-Hydroxy-4-(3-methylbut-2-enyloxy)-phenyl)-3-(4-methylphenyl)-propen-1-one] came in with a melting point of 108 to 109 °C.

As for `CSc1ccc(C=CC(=O)c2ccc(OCC=C(C)C)cc2O)cc1` [Compound XXVI, 1-(2-Hydroxy-4-(3-methylbut-2-enyloxy)-phenyl)-3-(4-methylthiophenyl)-propen-1-one], the melting point fell in the range of 130 to 131 °C.

Broadly, the melting point is the temperature of the solid-liquid transition.
